These results are taken from ChEMBL document CHEMBL5131522, “3-Pyrrolidine-indole Derivatives as 5-HT2-Selective Receptor Modulators for the Potential Treatment of Mental Disorders” (ACS Med Chem Lett, 2022).

The assay deals with 5-hydroxytryptamine receptor 2A (Homo sapiens, UniProt P28223). Description: Agonist activity at human 5-HT2A receptor expressed in cells assessed as increase in calcium mobilization by Calcium-6 dye based FLIPR assay. In kind it is functional, cell-based. In general terms: A change in cytosolic calcium serves as a functional read-out for many receptors and channels.
5-hydroxytryptamine receptor 2A, sequence (P28223 whole entry): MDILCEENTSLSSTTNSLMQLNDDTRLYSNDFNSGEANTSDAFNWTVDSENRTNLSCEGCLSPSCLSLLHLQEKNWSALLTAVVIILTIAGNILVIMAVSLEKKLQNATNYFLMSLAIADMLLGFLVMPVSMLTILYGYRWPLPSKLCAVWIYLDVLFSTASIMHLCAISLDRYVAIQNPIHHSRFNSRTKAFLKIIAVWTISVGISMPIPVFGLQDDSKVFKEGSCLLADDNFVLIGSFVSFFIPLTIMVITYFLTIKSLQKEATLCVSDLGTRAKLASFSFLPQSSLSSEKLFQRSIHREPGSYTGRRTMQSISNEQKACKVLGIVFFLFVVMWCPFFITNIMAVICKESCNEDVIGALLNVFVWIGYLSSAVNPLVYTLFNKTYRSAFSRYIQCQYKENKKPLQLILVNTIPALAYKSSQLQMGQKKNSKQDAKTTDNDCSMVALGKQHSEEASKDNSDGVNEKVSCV

Take `[2H]C([2H])(c1c[nH]c2cccc(OC)c12)[C@H]1CCCN1C([2H])([2H])[2H]`: the 50% effective concentration (EC50) is below 1000 nM.

For `Oc1cccc2[nH]cc(C[C@H]3CCCN3)c12`, the EC50 was below 1000 nM.

Consider `[2H]C([2H])(c1c[nH]c2cccc(F)c12)[C@H]1CCCN1`, for which the EC50 turned out to be 1000 nM.

On to `CN1CCC[C@@H]1Cc1c[nH]c2cccc(O)c12`, for which the EC50 is below 1000 nM.

Take `[2H]C([2H])([2H])N1CCC[C@H]1Cc1c[nH]c2cccc(OCc3ccccc3)c12`: the EC50 is below 10000 nM.

Regarding `[2H]C([2H])(c1c[nH]c2cccc(O)c12)[C@H]1CCCN1C([2H])([2H])[2H]`, the EC50 was below 1000 nM.

For the compound `[2H]C([2H])(c1c[nH]c2cccc(F)c12)[C@H]1CCCN1C([2H])([2H])[2H]`, the EC50 is below 1000 nM.

For the compound `[2H]C([2H])([2H])N1CCC[C@@H]1Cc1c[nH]c2cccc(O)c12`, the EC50 was below 1000 nM.

With `[2H]C([2H])([2H])N1CCC[C@@H]1Cc1c[nH]c2cccc(F)c12`, the 50% effective concentration (EC50) is below 1000 nM.

On to `[2H]C([2H])(c1c[nH]c2cccc(O)c12)[C@@H]1CCCN1`, for which the EC50 was below 1000 nM.

A word on the EC50: it is the concentration giving half of the maximal effect.
